Numbers after ± are expanded uncertainties.
Legend:
[1] = xn = mol fraction of the nth substance listed; conditions: 101 kPa, Liquid; for speed of sound: 298.15 K, Ecolab MPFU speed of sound meter; for mass density: Vibrating tube method
[2] = molar heat capacity at constant pressure; xn = mol fraction of the nth substance listed; conditions: 298.15 K, 101 kPa, Liquid, Flow calorimetry

COCCO [2-methoxyethan-1-ol] + CC#N
Conditions	molar heat capacity at constant pressure, [2] [J/K/mol]	speed of sound, [1] [m/s]
x1 = 0.0504	97.12 ± 0.6	–
x1 = 0.09833	–	1281.3 ± 2
x1 = 0.1006	101.84 ± 0.63	–
x1 = 0.1504	106.53 ± 0.66	–
x1 = 0.1641	107.81 ± 0.67	–
x1 = 0.1936	–	1285.5 ± 2
x1 = 0.1955	110.77 ± 0.68	–
x1 = 0.2	111.19 ± 0.69	–
x1 = 0.2999	–	1292.4 ± 2
x1 = 0.3003	120.53 ± 0.74	–
x1 = 0.3989	–	1300.3 ± 2
x1 = 0.4043	129.87 ± 0.8	–
x1 = 0.45	133.82 ± 0.83	–
x1 = 0.5007	138.04 ± 0.85	–
x1 = 0.5042	–	1309.5 ± 2
x1 = 0.6021	146.04 ± 0.9	–
x1 = 0.605	–	1318.2 ± 2
x1 = 0.6287	148.03 ± 0.91	–
x1 = 0.6497	149.58 ± 0.92	–
x1 = 0.7347	–	1328.4 ± 2
x1 = 0.7453	156.4 ± 0.97	–
x1 = 0.7493	156.67 ± 0.97	–
x1 = 0.8295	–	1334.3 ± 2
x1 = 0.9064	167.3 ± 1	–
x1 = 0.9177	–	1338.1 ± 2
x1 = 0.9498	170.12 ± 1.1	–
x1 = 1	173.25 ± 1.1	1339.7 ± 2

mass density [kg/m3], [1]
Conditions	308.15 K	318.15 K
x1 = 0.00977	–	758.593 ± 0.15
x1 = 0.00998	768.618 ± 0.14	–
x1 = 0.02023	–	761.593 ± 0.15
x1 = 0.02137	771.87 ± 0.14	–
x1 = 0.0304	–	764.483 ± 0.14
x1 = 0.03278	775.071 ± 0.14	–
x1 = 0.04029	–	767.262 ± 0.14
x1 = 0.04058	777.238 ± 0.14	–
x1 = 0.04893	–	769.671 ± 0.14
x1 = 0.0505	779.979 ± 0.14	–
x1 = 0.05932	–	772.54 ± 0.14
x1 = 0.06681	–	774.593 ± 0.14
x1 = 0.06827	784.813 ± 0.14	–
x1 = 0.07039	785.413 ± 0.14	–
x1 = 0.07541	786.728 ± 0.14	–
x1 = 0.07969	–	778.086 ± 0.14
x1 = 0.091	–	781.124 ± 0.14
x1 = 0.09332	791.503 ± 0.13	–
x1 = 0.1015	–	783.904 ± 0.14
x1 = 0.1019	793.744 ± 0.13	–
x1 = 0.1512	806.368 ± 0.13	–
x1 = 0.1516	–	796.793 ± 0.13
x1 = 0.195	817.055 ± 0.12	807.486 ± 0.13
x1 = 0.2495	829.827 ± 0.12	–
x1 = 0.2503	–	820.48 ± 0.12
x1 = 0.2981	840.655 ± 0.11	–
x1 = 0.304	–	832.469 ± 0.12
x1 = 0.4001	861.695 ± 0.1	–
x1 = 0.4012	–	852.641 ± 0.11
x1 = 0.5006	880.458 ± 0.095	–
x1 = 0.5007	–	871.365 ± 0.1
x1 = 0.6017	897.597 ± 0.088	–
x1 = 0.6038	–	888.921 ± 0.092
x1 = 0.7031	–	904.33 ± 0.086
x1 = 0.7041	913.484 ± 0.081	–
x1 = 0.8014	–	918.191 ± 0.08
x1 = 0.8024	927.171 ± 0.075	–
x1 = 0.9034	–	931.153 ± 0.074
x1 = 0.9066	940.325 ± 0.072	–
x1 = 0.9102	940.846 ± 0.07	–
x1 = 0.9133	–	932.346 ± 0.073
x1 = 0.9213	942.098 ± 0.07	–
x1 = 0.9235	–	933.569 ± 0.073
x1 = 0.9316	943.319 ± 0.069	–
x1 = 0.935	–	934.916 ± 0.072
x1 = 0.9417	944.49 ± 0.069	–
x1 = 0.9434	–	935.911 ± 0.072
x1 = 0.9524	–	936.96 ± 0.071
x1 = 0.9528	945.766 ± 0.068	–
x1 = 0.9632	946.944 ± 0.068	–
x1 = 0.9635	–	938.217 ± 0.071
x1 = 0.9702	947.731 ± 0.068	–
x1 = 0.9723	–	939.208 ± 0.07
x1 = 0.9814	948.974 ± 0.067	940.219 ± 0.07
x1 = 0.9929	–	941.484 ± 0.069
x1 = 0.9931	950.261 ± 0.067	–
x1 = 1	951.01 ± 0.063	942.253 ± 0.065
